Data taken from patent publication US5026687A (priority 1990, dated 1991).
“Also recorded” adds a separate entry of the source.

Columns and labels:
[1] = even low doses, after patient has developed pancreatitis; cited from earlier work
[2] = Conversion of 2',3'-dideoxyadenosine in patients; type: in vivo, human
Description: In addition to the 37 patients mentioned above, another 20 patients have been treated for a total of 57.

[3] = beagle dog; previously shown; cited from earlier work
[4] = test system: patients with AIDS or AIDS-related complex; test: Immune parameters (circulating CD4+, CD8+, total lymphocytes, CD4+:CD8+ ratio) in treated patients; type: in vivo, human
HIV = test: Serum HIV p24 antigen and HIV load in treated patients; type: in vivo
anergic patients = test: Cutaneous delayed type hypersensitivity reaction (skin test reactivity) of anergic patients; type: in vivo, human
[5] = test system: patients with AIDS or AIDS-related complex; test: Clinical improvement (well being, energy, weight, duration of benefit) in treated patients; type: in vivo, human
Description: Other patients had fatigue, loss of appetite, fevers, or recent weight loss. Many of these patients could not tolerate therapy with 3'-azido-2',3'-dideoxythymidine (AZT, zidovudine) because of nausea, malaise, or bone marrow toxicity, or were clinically deteriorating while on AZT treatment.

[6] = test system: HIV (cytopathic effect, ATH8 T cell line); test: Protection of ATH8 T cell line against cytopathic effect of HIV (synergy of combinations); type: cell-based, human immunodeficiency virus; conditions: in vitro
HIV-infected patients = test: Combination therapy of patients with 2',3'-dideoxyinosine and other agents; type: in vivo, human
Description: Examples of such therapies are disclosed in the following examples.
These two drugs are alternated in this manner about week-by-week for about one year. […] These two drugs are alternated about week-by-week for about 6 months.

[7] = human, in vivo
[8] = human, in vivo; remark: listed apart in the source
[9] = human, in vivo; remark: listed apart in the source
retroviral replication = conditions: cited from earlier work
clinical = conditions: human, in vivo, iv, 3.2 mg/kg
[10] = test system: human immunodeficiency virus-associated neurological dysfunction; test: Cognitive function in patients with HIV-associated neurological dysfunction
[11] = test system: patients with HIV infection; conditions: in vivo; cited from earlier work
HIV p24 gag production = conditions: with 2',3'-dideoxyinosine, T-cell line
[12] = about 1 to 7 mg/kg/day intravenously then about 2 to 14 mg/kg/day orally
[13] = patients with HIV infection, intravenous or oral
[14] = with gancyclovir about 500 mg/day iv, 2 weeks

SMILES: Sc1ncnc2nc[nH]c12 [6-mercaptopurine]
- pancreatitis on re-administration [1]: causes pancreatitis that returns acutely

SMILES: Nc1ncnc2c1ncn2[C@H]1CC[C@@H](CO)O1 [2',3'-dideoxyadenosine]
- conversion to 2',3'-dideoxyinosine [2]: rapidly converted to 2',3'-dideoxyinosine
- oral bioavailability [3]: can be orally bioavailable

SMILES: OC[C@@H]1CC[C@H](n2cnc3c(O)ncnc32)O1 [2',3'-dideoxyinosine]
- patients still having increases in circulating CD4+ lymphocytes ([4]; 3.2 to 4.8 mg/kg/day iv about 2 weeks, then about 6.4 to 9.6 mg/kg/day orally, about one year): 4 of the first 7 patients
- number of circulating CD4+ lymphocytes (change) [4, 12]: substantial increases in the number of circulating CD4+ lymphocytes
- number of circulating CD8+ lymphocytes (change) [4, 12]: increases in the number of circulating CD8+ lymphocytes
- number of circulating total lymphocytes (change) [4, 12]: increases in the number of circulating total lymphocytes
- time within which lymphocyte changes were observed ([4]; about 2 to 14 mg/kg/day orally after intravenous, within about): ≤ 2 weeks
- immune parameters improvement ([4]; below 2 mg/kg/day orally): not as consistently seen
- duration of lymphocyte changes ([4]; in many cases, about 2 to 14 mg/kg/day orally): at least one
- immune function ([4]; intravenous or oral route, long periods of time): improvement in immune function
- immune parameters improvement ([4]; more than 14 mg/kg/day orally, some patients): improvements in immune parameters
- CD4+ lymphocytes after treatment ([4]; one patient, baseline about 31, 1.6 mg/kg/day iv about 2 weeks, then oral 3.2 (10 weeks), 4.8 (21 weeks), 9.6 mg/kg/day (31 weeks)): about 90 CD4+ lymphocytes/mm^3
- CD4+ increases by prior AZT therapy ([4]; patients who had previously received 4 months or less of AZT): most consistently seen
- number of circulating CD4+ lymphocytes (change) [4, 13]: an increase in the number of circulating CD4+ lymphocytes; also recorded: increases in their circulating CD4+ cells
- number of circulating CD8+ lymphocytes (change) [4, 13]: an increase in the number of CD8+ lymphocytes; also recorded: increases in the number of CD8+ lymphocytes
- number of circulating total lymphocytes (change) [4, 13]: an increase in the number of circulating total lymphocytes; also recorded: increases in the number of total lymphocytes
- CD8+ lymphocytes after treatment ([4]; same first patient, baseline 189): about 302 CD8+ lymphocytes/mm^3
- total lymphocytes after treatment ([4]; same first patient, baseline 405): about 816 total lymphocytes/mm^3
- CD8+ lymphocytes after treatment ([4]; second patient, baseline 844, about one year): about 1256 CD8+ lymphocytes/mm^3
- total lymphocytes after treatment ([4]; second patient, baseline 1270, about one year): about 1794 total lymphocytes/mm^3
- CD4+ lymphocytes after treatment ([4]; second patient, baseline about 219, 4.8 mg/kg/day iv about 2 weeks then 9.6 mg/kg/day oral, about one year): about 359 CD4+ lymphocytes/mm^3
- replication of HIV (HIV; 35 evaluable patients): a decrease in the replication in their HIV
- patients with no detectable serum HIV p24 antigen (HIV; after about one year, about 6.4 to 9.6 mg/kg/day oral): two
- serum HIV p24 antigen (change) (HIV; by week 6, about 1 to 7 mg/kg/day iv then about 2 to 14 mg/kg/day orally, patients with detectable p24): substantial decreases in their serum HIV p24 antigen
- patients with decline in serum HIV p24 antigen (HIV; first 6 weeks, about 6.4 to 9.6 mg/kg/day orally, 3 patients with detectable p24 before therapy): All 3 had a decline
- reduction of p24 antigen detectable in serum (HIV; intravenous or oral route): a reduction of the amount of p24 antigen
- serum HIV p24 antigen in patients viremic in the face of AZT (HIV; patients viremic in the face of AZT therapy): a fall in serum HIV p24 antigen
- load of HIV in circulating lymphocytes by polymerase chain reaction (HIV; while receiving 2',3'-dideoxyinosine): a decrease in the load of HIV in their circulating lymphocytes
- anergic patients developing skin test reactivity to at least one test antigen (anergic patients; after approximately 6 weeks of therapy): 7 of these 23 (anergic patients
- cutaneous delayed type hypersensitivity reaction of anergic patients (anergic patients; some patients): regained the ability to mount a cutaneous delayed type hypersensitivity reaction to at least one test antigen
- clinical improvement ([5]; 35 evaluable patients): clinical improvement
- patients reporting an improvement in well being ([5]; 37 patients, increase in energy, decreased sleep requirements, or increased appetite): approximately one half of the 37 patients
- patients in whom the beneficial changes were seen ([5]; about 2 to 14 mg/kg/day orally with buffers or antacid): nearly all of the patients
- persistence of clinical improvements ([5]; about 2 to about 14 mg/kg/day orally with antiacids or buffers): can persist over at least a year's period of time
- average weight gain ([5]; first 6 weeks of therapy): 1.5 kg
- energy (change) ([5]; intravenous or oral route): an increase in energy
- weight (change) ([5]; intravenous or oral route): an increase in weight
- synergy with dextran sulfate, protection of ATH8 against cytopathic effect of HIV ([6]; with dextran sulfate): synergistic
- outcome of combination with AZT (HIV-infected patients; AZT 300 mg/day with ddI 3.2 mg/kg/day, or AZT 600 mg/day alternating weekly with ddI 6.4 mg/kg/day, about one year): Beneficial effects are seen
- outcome of combination with ddC (HIV-infected patients; ddC 0.015 mg/kg/day with ddI 3.2 mg/kg/day, or ddC 0.03 mg/day alternating weekly with ddI 6.4 mg/kg/day, about 6 months): Beneficial effects are seen
- outcome of combination with ribavirin (HIV-infected patients; ddI 3.2 mg/kg/day orally, ribavirin 100 to 2400 mg/day orally, about 6 months): Beneficial effects are seen
- clinical course with pentamidine prophylaxis (HIV-infected patients; ddI 4.8 mg/kg/day iv 2 weeks then 9.6 mg/kg/day orally 56 weeks, 300 mg pentamidine isothionate inhaled monthly): clinically did well
- outcome of combination with dextran sulfate (HIV-infected patients; ddI 6.4 mg/kg/day orally, dextran sulfate 2700 mg/day iv, about 6 months): Beneficial effects are seen
- outcome of combination with rCD4 (HIV-infected patients; ddI 6.4 mg/kg/day orally, rCD4 300 μg/kg/day iv, 1 year): Beneficial effects are seen
- outcome of combination with interferon alpha (HIV-infected patients; ddI 1 to 14 mg/kg/day orally with 0.5 to 10 million units interferon alpha daily, about 3 months, Kaposi's sarcoma): Beneficial effects are seen
- outcome of combination with IL-2 (HIV-infected patients; ddI 1 to 14 mg/kg/day orally with 25,000 to 1 million U/day IL-2, about 3 months): Beneficial effects are seen
- development of Pneumocystis carinii pneumonia (HIV-infected patients; with 300 mg pentamidine isothionate inhaled monthly, about 56 weeks): did not develop Pneumocystis carinii pneumonia
- recurrence of cytomegalovirus retinitis (HIV-infected patients; with acyclovir 4800 mg/day, 4 weeks): the retinitis has not recurred
- increase in weight (HIV-infected patients; [14]): about 2.2 kg
- recurrence of cytomegalovirus retinitis (HIV-infected patients; [14]): has not had a recurrence of the retinitis
- patient's report (HIV-infected patients; with gancyclovir about 500 mg/day iv, ddI 6.4 mg/kg/day orally, 2 weeks): reports feeling better
- oral absorption and pharmacokinetics on chronic administration (chronic oral administration in a given person): remain fairly constant
- oral absorption, non-fasting (oral, patient not in a fasting state): effectively absorbed
- cumulative dose exceeded without neuropathy appearing [7]: > 1.5 gm/kg
- neuropathy after prompt stopping in warning phase [7]: the neuropathy subsided
- pancreatitis [8]: can definitely cause pancreatitis
- time for amylase to return to about normal [8]: about one
- evidence of pancreatitis after restart ([8]; 6.4 mg/kg/day): no evidence of pancreatitis
- recurrence of pancreatitis after restart ([8]; po, 6.4 mg/kg/day): did not recur
- serum amylase after restart ([8]; po, 6.4 mg/kg/day): 80 U/liter
- clinical symptoms of pancreatitis ([8]; po, 9.6 mg/kg/day): no clinical symptoms of pancreatitis
- hepatitis after discontinuation [9]: the hepatitis resolved
- recurrence of hepatitis after restart ([9]; po, 6.4 mg/kg/day): did not recur
- suppression of retroviral replication (retroviral replication): known to suppress retroviral replication
- Cmax (clinical): ~10 µM
- half-life (clinical): ~40 min
- patients with improved cognitive function ([10]; 6 to 10 weeks of therapy, memory, speed and precision of doing tasks): 4 patients
- cognitive dysfunction associated with HIV infection ([10]; intravenous or oral route): an improvement in cognitive dysfunction
- memory quotient ([10]; one patient, about 9.6 mg/kg/day orally in 3 doses, from 111, after 6 weeks): 121

SMILES: Cc1cn([C@H]2C[C@H](N=[N+]=[N-])[C@@H](CO)O2)c(=O)[nH]c1=O [AZT, 3'-azido-2',3'-dideoxythymidine]
- synergy with 2',3'-dideoxyinosine, protection of ATH8 against cytopathic effect of HIV [6]: synergistic
- hepatic dysfunction [11]: can cause hepatic dysfunction
- pancreatitis or peripheral neuropathy [11]: not known to cause pancreatitis or a peripheral neuropathy
- toxicities and side effects [11]: anemia, other bone marrow suppression, and certain other toxicities such as myositis (muscle destruction or inflammation), headaches, nausea, vomiting, malaise, or seizures

SMILES: NC(=O)c1ncn([C@@H]2O[C@H](CO)[C@@H](O)[C@H]2O)n1 [Ribavirin]
- effect on the anti-HIV effect of 2',3'-dideoxyinosine (HIV p24 gag production) (HIV p24 gag production): induce enhancement of the anti-HIV effect

SMILES: Nc1ccn([C@H]2CC[C@@H](CO)O2)c(=O)n1 [2',3'-Dideoxycytidine]
- synergy with 2',3'-dideoxyinosine, protection of ATH8 against cytopathic effect of HIV [6]: synergistic
